Assay results as given in patent USRE29226E, “Preparation of carboxylate and sulfonate salts of 1-cis-(3-chloro-2-propenyl)-3,5,7-triaza-1-azoniatricyclo(3.3.1.1^3, 7)decane-II” (The Dow Chemical Company, priority 1976, dated 1977).
Where a name gives a salt, the structure may show the parent alone. Read-outs that look alike come from different tables or passages of the source.

Key:
Format in all cases: cell-based
S. aureus = experiment: conventional agar dilution test, S. aureus; settings: Sa = S. aureus, complete growth inhibition
From the text: (§1) In representative operations, the products of the invention when tested for antimicrobial activity using conventional agar dilution tests gave complete growth inhibition against the following organisms at the indicated concentrations in parts per million:
(§2) Minimum Inhibitory Concentration, ppm

S. typhosa = experiment: conventional agar dilution test, S. typhosa; settings: St = S. typhosa, complete growth inhibition
From the text: as §1, §2

A. aerogenes = experiment: conventional agar dilution test, A. aerogenes; settings: Aa = A. aerogenes, complete growth inhibition
From the text: as §1, §2

P. aeruginosa = experiment: conventional agar dilution test, P. aeruginosa; settings: Pa = P. aeruginosa, complete growth inhibition; for MIC: Pseudomonas aeruginosa, read-out: Minimum Inhibitory Concentration
From the text: as §1, §2

C. pelliculosa = experiment: conventional agar dilution test, C. pelliculosa; settings: Cp = C. pelliculosa
From the text: as §1, §2

S. cerevisiae = experiment: conventional agar dilution test, S. cerevisiae; settings: Sc = S. cerevisiae; for MIC / Minimum Inhibitory Concentration: complete growth inhibition, agar dilution; for MIC: read-out: Minimum Inhibitory Concentration
From the text: as §1, §2

A. niger = experiment: conventional agar dilution test, A. niger; settings: An = A. niger, complete growth inhibition; for MIC: Aspergillus niger, read-out: Minimum Inhibitory Concentration
From the text: as §1, §2

P. chrysogenum = experiment: conventional agar dilution test, P. chrysogenum; settings: Pen = P. chrysogenum
From the text: as §1, §2

[1] = complete growth inhibition, agar dilution

Row | SMILES | MIC (S. aureus; Staphylococcus aureus, read-out: Minimum Inhibitory Concentration) [µg/mL] | MIC (S. typhosa; read-out: Minimum Inhibitory Concentration) [µg/mL] | MIC (A. aerogenes; Klebsiella aerogenes, read-out: Minimum Inhibitory Concentration) [µg/mL] | MIC (P. aeruginosa) [µg/mL] | inhibition at 500 ppm (C. pelliculosa) | MIC (S. cerevisiae; Saccharomyces cerevisiae) [µg/mL] | MIC (A. niger) [µg/mL] | MIC (P. chrysogenum; Penicillium chrysogenum, complete growth inhibition, agar dilution, read-out: Minimum Inhibitory Concentration) [µg/mL] | Minimum Inhibitory Concentration (S. aureus) [ppm] | Minimum Inhibitory Concentration (S. typhosa) [ppm] | Minimum Inhibitory Concentration (A. aerogenes) [ppm] | MIC (C. pelliculosa; Hansenula anomala, complete growth inhibition, agar dilution, read-out: Minimum Inhibitory Concentration) [µg/mL] | Minimum Inhibitory Concentration (P. chrysogenum; [1]) [ppm] | Minimum Inhibitory Concentration (P. aeruginosa) [ppm] | inhibition at 500 ppm (S. cerevisiae; Saccharomyces cerevisiae, read-out: inhibition at 500 ppm) [%] | Minimum Inhibitory Concentration (A. niger) [ppm] | inhibition at 500 ppm (S. cerevisiae) | Minimum Inhibitory Concentration (S. cerevisiae) [ppm] | Minimum Inhibitory Concentration (C. pelliculosa; [1]) [ppm] | inhibition at 500 ppm (P. chrysogenum; Penicillium chrysogenum, 500 ppm) [%]
1 | Cl/C=C\C[N+]12CN3CN(CN(C3)C1)C2.[Cl-] [Cis, cis-1-(3-chloro-2-propenyl)-3,5,7-triaza-1-azoniatricyclo(3.3.1.1^3,7)decane chloride, reference compound] | 50 | 25 | 50 | 100 | ± (50% inhibition at 500 ppm) | 250 | > 500 | 250 | – | – | – | – | – | – | – | – | – | – | – | –
2 | Cl/C=C\C[N+]12CN3CN(CN(C3)C1)C2 [Example 1, Mono-benzoate Salt of Cis] | – | – | – | 250 | – | > 500 | > 500 | – | 100 | 50 | 100 | > 500 | 500 | – | – | – | – | – | – | –
3 | Cl/C=C\C[N+]12CN3CN(CN(C3)C1)C2 [Example 2, p-Toluene Sulfonate Mono-Salt of Cis] | – | – | – | – | ± (50% inhibition at 500 ppm) | – | – | – | 250 | 50 | 100 | – | 500 | 250 | 50 | > 500 | – | – | – | –
4 | Cl/C=C\C[N+]12CN3CN(CN(C3)C1)C2 [Ia] | – | – | – | – | ± (50% inhibition at 500 ppm) | – | – | – | 100 | 50 | 100 | – | > 500 | 250 | – | > 500 | ± (50% inhibition at 500 ppm) | – | – | –
5 | Cl/C=C\C[N+]12CN3CN(CN(C3)C1)C2 [Ib] | – | – | – | – | .-+. (>90% inhibition at 500 ppm) | – | – | – | 75 | 50 | 75 | – | 500 | 250 | – | > 500 | ± (50% inhibition at 500 ppm) | – | – | –
6 | Cl/C=C\C[N+]12CN3CN(CN(C3)C1)C2 [Ic] | – | – | – | – | ± (50% inhibition at 500 ppm) | – | – | – | 100 | 100 | 100 | – | 500 | 250 | – | > 500 | – | 500 | – | –
7 | Cl/C=C\C[N+]12CN3CN(CN(C3)C1)C2 [Id] | – | – | – | – | .-+. (>90% inhibition at 500 ppm) | – | – | – | 250 | 50 | 250 | – | 500 | 250 | – | > 500 | – | 500 | – | –
8 | Cl/C=C\C[N+]12CN3CN(CN(C3)C1)C2 [Ie] | – | – | – | – | – | – | – | – | 75 | 25 | 250 | – | > 500 | 250 | – | > 500 | – | > 500 | > 500 | –
9 | Cl/C=C\C[N+]12CN3CN(CN(C3)C1)C2 [If] | – | – | – | – | – | – | – | – | 250 | 75 | 250 | – | 100 | 250 | – | 250 | – | 500 | 250 | –
10 | Cl/C=C\C[N+]12CN3CN(CN(C3)C1)C2 [Ig] | – | – | – | – | – | – | – | – | 50 | 50 | 250 | – | – | 250 | – | > 500 | – | > 500 | > 500 | > 90
11 | Cl/C=C\C[N+]12CN3CN(CN(C3)C1)C2 [Ih] | – | – | – | – | – | – | – | – | 250 | 75 | 250 | – | > 500 | 250 | – | > 500 | – | > 500 | > 500 | –
12 | Cl/C=C\C[N+]12CN3CN(CN(C3)C1)C2 [Ii] | – | – | – | – | – | – | – | – | 250 | 50 | 250 | – | 100 | 250 | – | 500 | – | 500 | 250 | –
13 | Cl/C=C\C[N+]12CN3CN(CN(C3)C1)C2 [Ij] | – | – | – | – | – | – | – | – | 250 | 75 | 75 | – | 250 | 250 | – | 500 | – | 500 | 500 | –
